Assay results: patent US20130071927A1, “MEDIA AND METHODS FOR CELL CULTURE” (Sydney IVF Limited, priority 2010, published 2013)

Legend:
Assay type in all cases: cell-based, human
[1] = tested on: hESC; experiment: Feeder layer-free monolayer hESC culture on collagen I with protectants/modulators; conditions: for doubling time: collagen I coating + Y-27632 (10 μM), SIVF019 (FIG. 4)
Method: A single cell suspension was prepared similar to Example 4 by first washing a T25 flask with 5 ml PBS followed by trypsinising the cells with 2 ml 0.05% trypsin/5 mM EDTA, incubating at 37° C. for 10 mins and resuspending in 10 ml DMEM medium containing 10% FBS with vigorous pipetting. Cell number and viability was determined using the NucleoCounter and an appropriate number of cells centrifuged at 250×g for 4 mins prior to resuspension in conditioned KSR medium with 20 ng/ml bFGF plus additives. Conditioned KSR medium was produced by incubation of KSR medium on mitomycin-C treated human foetal fibroblasts for 48 hrs prior to harvest and storage at −20° C. As protectants/modulators the following additives were tested: • 1. 10 μM Y-27632 • 2. 20 μM OPH109 • 3. 2.5-10 μM blebbistatin • 4. 20 μM OPH109+2.5-10 μM blebbistatin
Cells were plated in collagen I (Cell Science and Technologies) coated 96 well optical bottom plates (BD) at a density of 2×10^4 cells/cm^2, and incubated at 37° C./5% CO2/5% O2. Media were changed on every 2nd day thereafter. […] This toxic effect could in turn be counteracted by using OPH109 in addition to blebbistatin. After 4-5 days in culture cells were fixed and immunofluorescence stained for the pluripotency markers Oct-3/4, SSEA-4 and Tra-1-81 as well as the early differentiation marker CD29. The cells were imaged and analysed using an IN Cell Analyzer 1000 and IN Cell Developer Toolbox 1.7 software. FIG. 3 summarises the results for 2 cell lines, indicating the ability of protectants/modulators to facilitate feeder-free monolayer culture of undifferentiated hESC. Next, the growth rate of monolayer hESC was assessed by imagining of Hoechst (Invitrogen) stained wells using the IN Cell Analyzer 1000 in 24 hr intervals. Cell number was determined by analysis using IN Cell Developer Toolbox 1.7 and IN Cell Analyzer 1000 Workstation 3.5 software. […] There was no significant difference in cell number or proliferation between uncoated and collagen I coated growth surfaces.

[2] = tested on: hESC; experiment: Expansion of single-cell dissociated hESC on feeder cells using protectants in the culture medium
Method: Organ culture dishes with various hESC lines (Table 1) were washed once with 1 ml PBS and then dislodged by adding ˜0.2 ml 0.05% trypsin/5 mM EDTA and incubating at 37° C. for 10 mins. After the incubation 1 ml DMEM medium containing 10% FBS was added to inhibit the trypsin, and a single cell suspension was obtained by vigorous pipetting. The cells were counted, pelleted by centrifugation at 250×g for 4 min and resuspended in 5 ml KSR medium containing 20 ng/ml bFGF and 20 μM OPH109, a potent, cell permeable inhibitor of several caspases. The cell suspension was then transferred to a T25 culture flask containing fresh, mitomycin C treated human embryonic fibroblast feeder layer cells and incubated at 37° C., 5% CO2 and 5% O2. The medium was changed after 2 days (and every 2 days thereafter) using KSR medium plus 4 ng/ml bFGF. […] Over the course of 8-10 days these colonies continued growing in size. In contrast, control cultures set up in the same way but without OPH109 in the initial culture medium only contained very few hESC colonies, in concordance with the reported poor viability of hESC after single cell dissociation.
After 8-10 days the cells were harvested by preparing a single cell suspension using trypsin/EDTA as described above. Table 3 list the numbers of cells obtained for various cell lines, indicating a 10-15 fold expansion in a single step. The cells could be used for subsequent experiments or further expansion by plating 10,000 cells/cm^2 into culture vessels with fresh feeder layer cells using KSR medium plus 20 ng/ml bFGF and 20 μM OPH109 as the initial culture medium.
In another experiment, single cell suspensions were prepared from hESC cells grown in organ culture dishes using trypsin/EDTA as described above. Cell were then resuspended in 5 ml KSR medium containing 20 ng/ml bFGF and 2.5 μM blebbistatin, a potent, cell permeable inhibitor of myosin II. The cell suspension was then transferred to a T25 culture flask containing fresh, mitomycin C treated human embryonic fibroblast feeder layer cells and incubated at 37° C., 5% CO2 and 5% O2. The medium was changed after 2 days (and every 2 days thereafter) using KSR medium plus 4 ng/ml bFGF. […] Colonies continued to grow in size and density over 8-10 days until the cultures were passaged again for cell counting (summarised in Table 4) and replating of 2,000-10,000 cells/cm^2 into culture vessels with fresh feeder layer cells using KSR medium plus 20 ng/ml bFGF and 2.5 μM blebbistatin as the initial culture medium. Using this method cells were expanded for >10 passages, while maintaining their pluripotency and normal karyotypes.

[3] = tested on: SIVF019 hESC; experiment: Feeder free expansion of hESC using monolayer culture; conditions: SIVF019 (collagenase passaged stock), within 9 days, 3 passages, 10 μM Y-27632 at plating, collagen I
Method: Manually passaged and collagenase passaged hESC lines (Table 1) grown on feeder cells were dissociated into single cells using 0.05% trypsin/5 mM EDTA as described in Example 5. Cells were plated into a collagen I coated plates at ˜2×10^4/cm^2 in Conditioned KSR medium with 20 ng/ml bFGF and 10 μM Y-27632, and incubated at 37° C./5% CO2/5% O2 (passage 1). The medium was changed the following day, then every 2nd day until cells reached ˜80% confluency. Cells were then dissociated into single cells using the 0.05% trypsin/5 mM EDTA protocol, with the exception of incubation with 0.05% trypsin/5 mM EDTA for 3 mins only, counted and plated at ˜2×10^4/cm^2 in the above described medium (passage 2). This process was repeated when cells reached confluency (passage 3). At each of the 3 passages, some of the dissociated cells were plated into 96 well plates for pluripotency assessment as described in Example 6. Within 9 days, the theoretical cell number obtained for SIVF019 (collagenase passaged stock) was 24 fold that originally plated (FIG. 6A). Manually passaged hESC SIVF002, SIVF006 and SIVF021 could also be successfully expanded as a monolayer (FIG. 6B).

[4] = tested on: hESC; experiment: Expansion of single-cell dissociated hESC on feeder cells using protectants in the culture medium; conditions: Y27632 as protectant in the culture medium, on feeders

In the case of `CC(C)[C@H](NC(=O)c1ccc2ccccc2n1)C(=O)N[C@@H](CC(=O)O)C(=O)COc1c(F)cccc1F` [OPH109, Quinoline-Val-Asp-Difluorophenoxymethylketone], the “cell morphology in feeder-free culture” value ([1]; 20 μM OPH109 by itself, collagen I coated 96 well plates) is reported as “changed to larger cytoplasm/nuclear ratios indicating cell differentiation”, the “number of passages cell lines were maintained (typical morphology, pluripotency markers, stable karyotype kept)” value ([2]; 20 μM OPH109 in initial culture medium, 10,000 cells/cm^2) is reported as > 10 passages and the expansion per passage ([2]; 20 μM OPH109 in initial culture medium, >10 passages) is reported as 10-15 fold. For the same compound, the “random images (10x objective) in which colonies were observed” value ([2]; 20 μM OPH109 in initial culture medium, control without OPH109 1 out of 10) was 6 out of the 10, the “Viable cells after 1 expansion step” value ([2]; SIVF006, 20 μM OPH109, from 1.23 × 10^5 cells in organ culture dish to T25 flask, 8-10 days) was 1.97 × 10^6 cells and the “Viable cells after 1 expansion step” value ([2]; SIVF019, 20 μM OPH109, starting cells not determined, T25 flask, 8-10 days) was 3.1 × 10^6 cells. The “Viable cells after 1 expansion step” value ([2]; SIVF021, 20 μM OPH109, from 2.19 × 10^5 cells in organ culture dish to T25 flask, 8-10 days) was 3.00 × 10^6 cells, the “Viable cells after 1 expansion step” value ([2]; SIVF022, 20 μM OPH109, from 3.99 × 10^5 cells in organ culture dish to T25 flask, 8-10 days) was 4.40 × 10^6 cells and the “expansion in a single step” value ([2]; various cell lines, 20 μM OPH109, 8-10 days) was 10-15 fold.
In the case of `Cc1ccc2c(c1)C(=O)C1(O)CCN(c3ccccc3)C1=N2` (stereo not drawn) [blebbistatin], the toxicity ([1]; blebbistatin 2.5-10 μM, feeder-free on collagen I) is reported as “increased toxicity at higher concentrations”, the “concentration at which most potent as protectant/modulator” value ([1]; tested 2.5-10 μM, feeder-free on collagen I) is reported as 2.5 µM and the “number of passages cells were expanded (pluripotency and normal karyotypes maintained)” value ([2]; 2.5 μM blebbistatin in initial culture medium, 2,000-10,000 cells/cm^2) is reported as > 10 passages. For the same compound, the “Viable cells after 1 expansion step” value ([2]; SIVF002, 2.5 μM blebbistatin, from 5.7 × 10^4 cells in organ culture dish to T25 flask) was 1.5 × 10^6 cells, the “Viable cells after 1 expansion step” value ([2]; SIVF019 Exp 1, 2.5 μM blebbistatin, from 6.6 × 10^4 cells in organ culture dish) was 3.4 × 10^6 cells and the “Viable cells after 1 expansion step” value ([2]; SIVF019 Exp 2, 2.5 μM blebbistatin, from 2.5 × 10^5 cells in organ culture dish) was 2.4 × 10^6 cells. For the same compound, the “Viable cells after 1 expansion step” value ([2]; SIVF019 Exp 3, 2.5 μM blebbistatin, from 2.5 × 10^5 cells in organ culture dish) was 3.4 × 10^6 cells, the “Viable cells after 1 expansion step” value ([2]; SIVF024, 2.5 μM blebbistatin, from 2.6 × 10^5 cells in organ culture dish) was 1.6 × 10^6 cells and the “Viable cells after 1 expansion step” value ([2]; SIVF048, 2.5 μM blebbistatin, from 2.3 × 10^5 cells in organ culture dish) was 2.0 × 10^6 cells. The “protectant strength compared with OPH109” value ([2]; allows lower initial plating densities and greater expansion) was “more powerful protectant than OPH109”.
With `C[C@@H](N)[C@H]1CC[C@H](C(=O)Nc2ccncc2)CC1` [Y-27632] the doubling time ([1]; between 24 hrs and 48 hrs post-plating) was 11 h, the doubling time ([1]; between 48 hrs and 72 hrs post-plating) was 17 h and the “cell viability after dissociation into single cell suspensions” value ([2]; Y27632 as protectant in the culture medium, on feeders) was “dramatically increased cell viability”. For the same compound, the “theoretical cell number relative to that originally plated” value [3] was 24 fold and the “morphology of the colonies” value [4] was “flat monolayers of small cells with high nuclear to cytoplasmic ratios”.
